Consider eleven compounds from ChEMBL document CHEMBL5291721, “A preclinical secondary pharmacology resource illuminates target-adverse drug reaction associations of marketed drugs” (Nat Commun, 2023).

Molecules are shown by their SMILES.

Assay [1] concerns the target T1, Thromboxane A2 receptor (Homo sapiens, UniProt P21731).
T1 sequence (P21731 whole entry): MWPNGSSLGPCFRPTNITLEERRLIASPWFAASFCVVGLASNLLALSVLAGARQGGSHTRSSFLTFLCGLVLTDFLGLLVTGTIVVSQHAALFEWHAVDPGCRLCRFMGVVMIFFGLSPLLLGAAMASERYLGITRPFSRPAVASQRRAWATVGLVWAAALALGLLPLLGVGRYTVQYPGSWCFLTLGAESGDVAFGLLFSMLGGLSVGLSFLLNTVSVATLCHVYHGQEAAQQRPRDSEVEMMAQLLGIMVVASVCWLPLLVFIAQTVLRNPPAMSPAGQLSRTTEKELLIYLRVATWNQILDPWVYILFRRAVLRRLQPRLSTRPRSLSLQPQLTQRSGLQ
Format: functional, cell-based.

For a further assay, the target named is Mu-type opioid receptor (Homo sapiens, UniProt P35372).
Sequence of Mu-type opioid receptor (P35372 whole entry): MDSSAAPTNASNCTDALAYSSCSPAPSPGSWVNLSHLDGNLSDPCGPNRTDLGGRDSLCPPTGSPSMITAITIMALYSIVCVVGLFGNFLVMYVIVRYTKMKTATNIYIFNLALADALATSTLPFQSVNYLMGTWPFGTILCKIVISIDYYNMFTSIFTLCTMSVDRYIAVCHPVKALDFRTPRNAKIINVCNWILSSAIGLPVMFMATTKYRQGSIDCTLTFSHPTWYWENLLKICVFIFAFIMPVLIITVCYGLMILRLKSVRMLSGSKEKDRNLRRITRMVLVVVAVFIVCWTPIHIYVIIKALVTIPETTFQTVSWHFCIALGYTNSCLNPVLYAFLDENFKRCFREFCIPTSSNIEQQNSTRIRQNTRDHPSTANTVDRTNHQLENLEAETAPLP
Assay [2] addresses T1, Thromboxane A2 receptor. The format is functional, cell-based. This is another data set of the same source.
Assay [3] addresses 5-hydroxytryptamine receptor 2B (Homo sapiens, UniProt P41595). Format: functional, cell-based.
Assay [4] concerns the target Prostaglandin G/H synthase 1 (Homo sapiens, UniProt P23219). Format: functional.
The target in assay [5] is T2, 5-hydroxytryptamine receptor 1A (Homo sapiens, UniProt P08908).
T2 sequence (P08908 whole entry): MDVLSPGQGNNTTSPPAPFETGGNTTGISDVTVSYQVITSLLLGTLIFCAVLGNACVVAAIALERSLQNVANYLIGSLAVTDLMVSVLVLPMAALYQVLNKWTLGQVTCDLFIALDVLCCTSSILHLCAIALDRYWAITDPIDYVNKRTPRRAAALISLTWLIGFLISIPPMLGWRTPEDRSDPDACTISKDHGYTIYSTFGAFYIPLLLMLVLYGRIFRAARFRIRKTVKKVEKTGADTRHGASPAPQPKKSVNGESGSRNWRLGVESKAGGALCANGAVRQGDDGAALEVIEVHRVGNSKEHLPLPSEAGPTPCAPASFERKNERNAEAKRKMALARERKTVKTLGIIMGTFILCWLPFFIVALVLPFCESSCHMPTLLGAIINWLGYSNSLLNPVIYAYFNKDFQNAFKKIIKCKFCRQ

In another assay the target is D(3) dopamine receptor (Homo sapiens, UniProt P35462).
Sequence of D(3) dopamine receptor (P35462 whole entry): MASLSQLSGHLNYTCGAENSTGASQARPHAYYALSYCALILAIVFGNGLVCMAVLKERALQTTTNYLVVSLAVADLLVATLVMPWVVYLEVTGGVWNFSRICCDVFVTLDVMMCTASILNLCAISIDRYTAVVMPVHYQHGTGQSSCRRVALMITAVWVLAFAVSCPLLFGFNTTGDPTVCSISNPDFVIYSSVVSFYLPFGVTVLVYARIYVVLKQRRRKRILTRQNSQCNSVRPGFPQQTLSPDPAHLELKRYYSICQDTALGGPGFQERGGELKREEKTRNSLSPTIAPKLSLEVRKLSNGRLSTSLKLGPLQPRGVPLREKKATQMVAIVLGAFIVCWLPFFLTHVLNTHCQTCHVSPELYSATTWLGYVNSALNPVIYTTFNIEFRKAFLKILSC

What is called AC50 is the midpoint of the concentration-response curve, whichever way the signal moves. A low value points to greater potency.
Note: assay procedure not described here.

Sequence of 5-hydroxytryptamine receptor 2B (P41595 whole entry): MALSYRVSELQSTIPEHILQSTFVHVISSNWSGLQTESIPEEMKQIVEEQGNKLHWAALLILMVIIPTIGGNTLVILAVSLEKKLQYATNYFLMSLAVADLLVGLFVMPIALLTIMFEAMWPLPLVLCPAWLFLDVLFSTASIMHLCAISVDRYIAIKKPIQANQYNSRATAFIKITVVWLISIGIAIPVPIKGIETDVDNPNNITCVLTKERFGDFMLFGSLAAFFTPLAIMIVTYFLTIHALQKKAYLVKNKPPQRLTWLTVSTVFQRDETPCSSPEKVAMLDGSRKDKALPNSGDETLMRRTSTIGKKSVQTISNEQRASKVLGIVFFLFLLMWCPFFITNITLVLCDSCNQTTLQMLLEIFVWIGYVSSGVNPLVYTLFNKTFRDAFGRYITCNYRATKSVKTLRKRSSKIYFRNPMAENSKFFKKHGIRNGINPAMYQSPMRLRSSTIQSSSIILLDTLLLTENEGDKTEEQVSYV
Sequence of Prostaglandin G/H synthase 1 (P23219 whole entry): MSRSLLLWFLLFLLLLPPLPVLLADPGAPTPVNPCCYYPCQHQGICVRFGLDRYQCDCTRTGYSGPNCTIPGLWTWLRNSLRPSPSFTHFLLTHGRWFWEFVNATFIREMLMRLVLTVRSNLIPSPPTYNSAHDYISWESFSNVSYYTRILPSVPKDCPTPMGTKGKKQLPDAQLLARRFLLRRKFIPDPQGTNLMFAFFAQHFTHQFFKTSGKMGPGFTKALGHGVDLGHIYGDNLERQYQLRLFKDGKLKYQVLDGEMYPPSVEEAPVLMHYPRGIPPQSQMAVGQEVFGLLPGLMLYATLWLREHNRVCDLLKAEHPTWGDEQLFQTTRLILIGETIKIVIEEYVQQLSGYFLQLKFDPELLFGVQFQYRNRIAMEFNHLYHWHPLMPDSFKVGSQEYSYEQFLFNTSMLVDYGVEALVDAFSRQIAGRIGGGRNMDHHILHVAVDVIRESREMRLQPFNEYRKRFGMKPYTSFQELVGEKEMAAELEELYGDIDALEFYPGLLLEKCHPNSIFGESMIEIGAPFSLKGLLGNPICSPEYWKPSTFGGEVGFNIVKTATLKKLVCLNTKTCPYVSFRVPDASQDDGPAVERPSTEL

Take `CCN(CC)C(=S)S` [DITIOCARB]: the AC50 at Thromboxane A2 receptor [1] is over 30 µM; at Mu-type opioid receptor, over 30 µM; on Thromboxane A2 receptor [2], over 1 µM; in assay [3], over 30 µM; in assay [4] it was 10.3 µM; in assay [5], over 30 µM. Further, the AC50 at D(3) dopamine receptor was over 30 µM.

`C=C1CC[C@H](O)C/C1=C/C=C1\CCC[C@]2(C)[C@@H]([C@H](C)/C=C/[C@H](C)C(C)C)CC[C@@H]12` [ERGOCALCIFEROL]: the AC50 (on Thromboxane A2 receptor [1]; at Mu-type opioid receptor; on Thromboxane A2 receptor [2]; in assay [3]; in assay [4]; in assay [5]) was over 30 µM in each case. The AC50 on D(3) dopamine receptor is over 30 µM.

As for `CCC(=O)O[C@]1(C(=O)CCl)[C@@H](C)C[C@H]2[C@@H]3C[C@H](F)C4=CC(=O)C=C[C@]4(C)[C@@]3(F)[C@@H](O)C[C@@]21C` [HALOBETASOL PROPIONATE], the AC50 (on Thromboxane A2 receptor [1]; at Mu-type opioid receptor; at Thromboxane A2 receptor [2]; in assay [3]; in assay [4]; in assay [5]) was over 30 µM throughout. The same compound came in with an AC50 at D(3) dopamine receptor of over 30 µM.

On to `CC(N)Cc1ccc(O)cc1` (configuration not stated) [HYDROXYAMPHETAMINE], for which the AC50 (at Thromboxane A2 receptor [1]; at Mu-type opioid receptor; at Thromboxane A2 receptor [2]; in assay [3]; in assay [4]; in assay [5]) was over 30 µM each time. The compound also had an AC50 on D(3) dopamine receptor of over 30 µM.

As for `Cc1cc(NC(=O)C2=C(O)c3ccccc3S(=O)(=O)N2C)no1` [ISOXICAM], the AC50 (at Thromboxane A2 receptor [1]; at Mu-type opioid receptor; at Thromboxane A2 receptor [2]; in assay [3]; in assay [4]; in assay [5]) was over 30 µM each time. The compound further registered an AC50 on D(3) dopamine receptor of over 30 µM.

For `COc1cc2c(cc1OC)CC(=O)N(CCCN(C)C[C@H]1Cc3cc(OC)c(OC)cc31)CC2` [IVABRADINE], the AC50 at Thromboxane A2 receptor [1] is over 30 µM; on Mu-type opioid receptor, over 30 µM; at Thromboxane A2 receptor [2], over 30 µM; in assay [3], over 30 µM; in assay [4] it was over 30 µM; in assay [5] it was 5.81 µM. The compound also displayed an AC50 on D(3) dopamine receptor of 2.61 µM.

As to `CC(C)(C)NC[C@H](O)COc1cccc2c1CCCC2=O` [LEVOBUNOLOL], the AC50 was over 30 µM at Thromboxane A2 receptor [1]; over 30 µM at Mu-type opioid receptor; over 30 µM on Thromboxane A2 receptor [2]; over 30 µM in assay [3]; over 30 µM in assay [4]; 0.886 µM in assay [5]. The AC50 on D(3) dopamine receptor is over 30 µM.

As to `Cc1c(N(C)CS(=O)(=O)O)c(=O)n(-c2ccccc2)n1C` [METAMIZOLE], the concentration at half-maximal activity (AC50) is over 30 µM on Thromboxane A2 receptor [1]; over 30 µM on Mu-type opioid receptor; over 30 µM at Thromboxane A2 receptor [2]; over 30 µM in assay [3]; 3.66 µM in assay [4]; over 30 µM in assay [5]. The AC50 on D(3) dopamine receptor is over 30 µM.

With `CN1C(=O)/C(=N\NC(N)=S)c2ccccc21` [METHISAZONE], the AC50 was 21.8 µM on Thromboxane A2 receptor [1]; over 30 µM on Mu-type opioid receptor; over 10 µM at Thromboxane A2 receptor [2]; over 30 µM in assay [3]; over 30 µM in assay [4]; over 30 µM in assay [5]. For the same compound, the AC50 at D(3) dopamine receptor was over 30 µM.

For the compound `COC(=O)c1ccc(O)cc1` [METHYLPARABEN], the AC50 is over 30 µM on Thromboxane A2 receptor [1]; over 30 µM on Mu-type opioid receptor; over 30 µM at Thromboxane A2 receptor [2]; over 30 µM in assay [3]; over 1 µM in assay [4]; over 30 µM in assay [5]. On D(3) dopamine receptor, the AC50 is over 30 µM.

With `CCCc1nc(C(C)(C)O)c(C(=O)O)n1Cc1ccc(-c2ccccc2-c2nnn[nH]2)cc1` [OLMESARTAN], the AC50 (at Thromboxane A2 receptor [1]; at Mu-type opioid receptor; on Thromboxane A2 receptor [2]; in assay [3]; in assay [4]; in assay [5]) was over 30 µM throughout. Moreover, the AC50 on D(3) dopamine receptor is over 30 µM.
